pIC50: −log10 of the molar value.
Experiments:
gastric H^+ /K^+ -ATPase = target: T1, gastric H^+ /K^+ -ATPase (Sus scrofa, UniProt P19156); assay: gastric H+/K+-ATPase inhibition in isolated porcine gastric microsomes (phosphate release); format: biochemical
T1 construct: preparing the microsomes from hog gastric mucosa; from tissue; host or cells: hog gastric mucosa (microsomes)
Procedure: The activity of the compounds of the present invention as anti-ulcer agents, useful in the treatment of gastric disease in mammals, such as peptic ulcers, etc., is assessed by their ability to inhibit gastric H^+ /K^+ -ATPase, using isolated porcine gastric microsomes and essentially employing a modification of the method first described by G. Saccomani et al., as initially reported in Biochimica Biophysica Acta, Vol. 465, p. 311 (1977). The modification involves preparing the microsomes from hog gastric mucosa according to the procedure first described by L-A. Yeh et al., in Membrane Biochemistry, Vol. 9, p. 129 (1991). The H^+ /K^+ -ATPase enzyme activity is assayed according to the procedure described by N. Chang et al., in Biochimica Biophysica Acta, Vol. 464, p. 313 (1977), using a medium containing […], 3 mM ATP, 50 mM Tris-HCl (pH 7.4) and 2 mM MgCl2 with or without 10 mM KCl in a final volume of 1.1 mL. The incubation step is initially carried out at 37° C. for a period of 15 minutes. The reaction is then terminated by the addition of 100 μL of 50% TCA (trichloroacetic acid). Phosphate release is next measured spectrophotometrically in the manner described by C. H. Fiske et al., in the Journal of Biological Chemistry, Vol. 66, p. 375 (1925).

osteoclasts = assay: bone slice assay: bone resorption by isolated osteoclasts (scanning electron microscopy); format: cell-based, neonatal rat; settings: isolated osteoclasts on bone slices
Procedure: 155, (1985), as well as in Endocrinology, Vol. 116, p. 234 (1985). In this assay, osteoclasts are mechanically disaggregated from neonatal rat long bones into Hepes-buffered medium 199 (available from Flow Laboratories of Irvine, […] in the United Kingdom). The suspension is agitated with a pipette and the larger fragments were allowed to settle for a period of 30 seconds. The cells are then added to two wells of a multiwell-dish containing bone slices, with each of said slices measuring 2.5 mm^2. After incubating at 37° C. for a period of 15 minutes, the aforesaid bone slices are then removed, washed in medium 199 and placed in individual wells of a 96-well plate (also available from Flow Laboratories). These latter bone slices are then incubated overnight in a total volume of […] of culture medium consisting of 10% newborn calf-serum (from Flow Laboratories) in Hanks-buffered MEM (also from Flow Laboratories) in the presence or absence of the test compound. Bone resorption is quantified by means of scanning electron microscopy. […] The number and size of the osteoclastic excavations, and the plan area of bone resorbed is recorded. Differences between groups are then analyzed by means of Student's t-Test.

T1 sequence (P19156 2-1034 limits assumed): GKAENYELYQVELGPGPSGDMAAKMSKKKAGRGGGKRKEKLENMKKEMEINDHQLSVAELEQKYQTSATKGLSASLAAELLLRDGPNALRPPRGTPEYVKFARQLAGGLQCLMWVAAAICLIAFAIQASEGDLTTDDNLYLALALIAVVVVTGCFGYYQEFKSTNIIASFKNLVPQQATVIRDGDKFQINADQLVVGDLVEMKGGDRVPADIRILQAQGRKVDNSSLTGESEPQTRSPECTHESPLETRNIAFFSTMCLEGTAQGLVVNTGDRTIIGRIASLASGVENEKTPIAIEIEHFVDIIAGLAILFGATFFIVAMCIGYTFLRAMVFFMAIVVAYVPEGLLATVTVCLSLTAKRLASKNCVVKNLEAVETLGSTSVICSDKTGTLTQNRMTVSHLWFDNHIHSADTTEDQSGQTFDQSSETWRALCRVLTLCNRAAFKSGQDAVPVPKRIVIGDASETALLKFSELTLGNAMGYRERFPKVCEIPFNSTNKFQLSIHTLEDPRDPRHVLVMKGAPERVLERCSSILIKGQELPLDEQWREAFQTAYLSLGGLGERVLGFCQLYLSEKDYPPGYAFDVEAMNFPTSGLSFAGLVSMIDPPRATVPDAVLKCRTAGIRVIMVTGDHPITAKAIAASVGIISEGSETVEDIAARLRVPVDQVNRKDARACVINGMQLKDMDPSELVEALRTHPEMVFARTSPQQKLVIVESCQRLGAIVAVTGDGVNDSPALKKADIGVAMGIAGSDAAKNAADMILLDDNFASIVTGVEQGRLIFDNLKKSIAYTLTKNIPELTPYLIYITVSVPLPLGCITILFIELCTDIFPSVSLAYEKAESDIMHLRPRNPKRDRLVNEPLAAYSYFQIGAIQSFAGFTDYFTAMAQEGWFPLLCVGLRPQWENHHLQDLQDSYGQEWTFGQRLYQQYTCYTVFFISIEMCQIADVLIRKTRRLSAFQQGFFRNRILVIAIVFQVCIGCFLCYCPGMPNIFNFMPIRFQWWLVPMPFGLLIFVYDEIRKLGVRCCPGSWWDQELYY
T1 sequence (P18434 whole entry partner): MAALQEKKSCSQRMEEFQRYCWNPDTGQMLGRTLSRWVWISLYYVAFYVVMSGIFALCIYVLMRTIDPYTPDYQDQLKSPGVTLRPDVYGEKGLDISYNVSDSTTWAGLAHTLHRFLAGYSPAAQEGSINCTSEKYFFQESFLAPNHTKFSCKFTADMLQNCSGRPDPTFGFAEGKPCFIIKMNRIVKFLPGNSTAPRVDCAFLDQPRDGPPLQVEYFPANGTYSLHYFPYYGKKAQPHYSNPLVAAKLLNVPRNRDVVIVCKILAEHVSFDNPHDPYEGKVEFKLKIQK

inhibition at 10 µM (gastric H^+ /K^+ -ATPase; at 10 μM): ~50%
nature of H+/K+-ATPase inhibition (gastric H^+ /K^+ -ATPase; porcine gastric microsomes): both reversibly and specifically
pIC50 (gastric H^+ /K^+ -ATPase; porcine gastric microsomes, 37° C., 15 minutes, pH 7.4, read-out: IC50 value range, inhibition of gastric H+/K+-ATPase): 4.70 to 5.00
SMILES: CCOC(=O)CCC(=O)c1cnc2c(OC)cccc2c1Nc1ccccc1C [Example 1, 3-(3-ethoxycarbonylpropionyl)-8-methoxy-4-(2-methylphenylamino)quinoline]
minimal effective concentration (osteoclasts; Rattus norvegicus, Osteoclast, overnight incubation, dose-responsive, read-out: concentration level at which statistically significant inhibition of bone resorption occurs): 0.1 µM
inhibition of lacunae formation and bone resorption (in words) (osteoclasts): potent inhibitor of lacunae formation and of resultant bone resorption

Reference: patent US5362743A, “Aminoquinoline derivatives” (Pfizer Inc., priority 1993, dated 1994)
